Counter-ions that a name gives are not always drawn.
Biological target: T1, squalene synthetase (Rattus norvegicus, UniProt Q02769)
T1 construct: from tissue; host or cells: liver microsomes of cholestyramine-fed Sprague-Dawley rat
T1 sequence (Q02769 1-416): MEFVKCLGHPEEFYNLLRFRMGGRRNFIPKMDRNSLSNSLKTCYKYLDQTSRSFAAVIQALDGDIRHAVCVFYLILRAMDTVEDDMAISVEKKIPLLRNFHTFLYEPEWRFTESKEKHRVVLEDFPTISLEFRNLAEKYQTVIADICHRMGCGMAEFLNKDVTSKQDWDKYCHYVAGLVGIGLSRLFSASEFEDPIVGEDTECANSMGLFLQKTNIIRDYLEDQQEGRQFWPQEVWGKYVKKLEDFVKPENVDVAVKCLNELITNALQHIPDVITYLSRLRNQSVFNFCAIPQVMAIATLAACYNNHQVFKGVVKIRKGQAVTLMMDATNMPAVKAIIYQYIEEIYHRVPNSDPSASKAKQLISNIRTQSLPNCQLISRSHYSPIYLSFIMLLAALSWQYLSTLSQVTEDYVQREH
Assay: inhibitory activity against squalene synthetase with liver microsome of cholestyramine-treated rat
Format: biochemical
Settings: liver microsome of cholestyramine-treated Sprague-Dawley rat; 10 μM 3H-FPP, pH 7.4, 37° C., 10 min
Description: Determination of inhibitory activity against squalene synthetase with liver microsome of cholestyramine-treated rat
1 mM NADPH (nicotinamide adenine dinucleotide phosphate)
10 μM ^3 H-FPP (farnesylpyrophosphoric acid) (10 mCi/mmol, a product of New England Nuclea Co.)
0.1 mg/ml liver microsome of rat 37° C., 10 min.
These components were put in a spit tube as follows: […]
______________________________________
sample solution of 5-fold concentration
1 mg/ml liver microsome of rat
The obtained mixture was preincubated at 37° C. for 5 minutes. 50 μl of 100 μM ^3 H-FPP (10 mCi/mmol; NEN) was added to the resulting mixture to initiate a reaction. After 10 minutes, 1 ml of 4N NaOH was added to the mixture to stop the reaction, followed by the addition thereto of 1 ml of ethanol. The obtained mixture was incubated at 80° C. for 12 hours, cooled with ice and extracted with petroleum ether twice. The petroleum ether layers were separated from the aqueous layer and evaporated to dryness with nitrogen gas. The residue was dissolved in 25 μl of chloroform containing squalene, famesol and cholesterol as markers. The obtained solution was applied to TLC (Empore; 412001-1) and developed under the following conditions:
benzene/isopropyl ether (1: 1), 6 min.
The band of squalene was cut from the plate and examined for radioactivity with a liquid scintillation counter to determine the inhibitory ratio.
(2) Preparation of Liver Microsome of Rat
A Sprague-Dawley rat was fed with food containing 2% of cholestyramine (Dowex 1-X2) for at least 5 days to enhance the cholesterol-biosynthesizing activity of the rat. At midnight (0:00), the liver was extirpated from the rat and washed with a 1.154 (w/v) ice-cooled KCl solution to remove the blood from the liver. The resulting liver was cut into small pieces with scissors, homogenized with a Teflon homogenizer of the loose fitting type and subjected to centrifugation (700 g, 10 min). The obtained supernatant was further subjected to centrifugation (15,000 g, 20 min) and the obtained supernatant was furthermore subjected to centrifugation (105,000 g 60 min) to be separated into a microsome fraction and a supernatant. This microsome fraction was washed with a 0.1M potassium phosphate buffer (pH: 7.4) once and suspended in a 0.1M potassium phosphate buffer in the liver concentration of 3 g/ml. The obtained suspension was examined for protein concentration by the Lowry method and the protein concentration was adjusted to 20 mg/ml.
IC50 values of the squalene synthetase inhibiting activity are given in Tables 1 to 5, wherein Me represents a methyl group and Et an ethyl group.

| SMILES | IC50 [nM] |
| --- | --- |
| CC(C)=CCC/C(C)=C/CC/C(C)=C/CCC(C(=O)O)P(=O)(O)O (centres unmarked) [Example 33, Trisodium salt of-(E,E)-1-carboxy-5,9,13-trimethyl-4,8,12-tetradecatrienylphosphonic acid] | 180 |
| CCOC(=O)C(C/C=C(\C)CC/C=C(\C)CCC=C(C)C)P(=O)(O)O (centres unmarked) [Example 31, Disodium (E,E)-1-carboethoxy4,8,12-trimethyl-3,7,11-tridecatrienylphosphonate] | 9400 |
| CC(C)=CCC/C(C)=C/CC/C(C)=C/CCC(P(=O)(O)O)P(=O)(O)O [Example 14, (E,E)-5,9,13-Trimethyl-4,8,12-tetradecatrienyl-1,1-bis(phosphonic acid disodium salt)] | 5 |
| CCOP(=O)(O)C(C/C=C/C=C(\C)CC/C=C(\C)CCC=C(C)C)C(=O)O (centres unmarked) [Example 30, Disodium salt of ethyl (E,E,E)-1-carboxy-6,10,14-trimethyl-3,5,9,13-pentadecatetraenylphosphonate] | 7100 |
| CCOP(=O)(O)C(CC/C=C(\C)CC/C=C(\C)CCC=C(C)C)C(=O)O (centres unmarked) [Example 29, Disodium salt of ethyl(E,E)-1-carboxy-5,9,13-trimethyl-4,8,12-tetradecatrienylphosphonate] | 7300 |
| CC(C)=CCC/C(C)=C/CNCCCC(P(=O)(O)O)P(=O)(O)O [Example 45, 4-{(E)-3,7-Dimethyl-2,6-octadienylamino}butyl-1,1-bis(phosphonic acid disodium salt)] | 3 |
| CC(C)=CCC/C(C)=C/CN(C)CCCC(P(=O)(O)O)P(=O)(O)O [Example 43, 4-{(E)-N-Methyl-3,7-dimethyl-2,6-octadienylamino}butyl 1,1-bis(phosphonic acid disodium salt)] | 3 |
| CC(C)=CCC/C(C)=C/CC/C(C)=C/CN(C)CCCC(C(=O)O)P(=O)(O)O (centres unmarked) [Example 35, Trisodium salt of 1-carboxy,4-{(E,E)-N-methyl-3,7,11-trimethyl-2,6,10-dodecatrienylamino}burylphosphonic acid] | 20 |
| CC(C)=CCC/C(C)=C/CC(P(=O)(O)O)P(=O)(O)O [Example 15, (E)-4,8-Dimethyl3,7-nonadienyl-1,1-bis(phosphonic acid disodium salt)] | 300 |
| CC(C)=CCC/C(C)=C/CCC(C)N(C)CCCC(C(=O)O)P(=O)(O)O (centres unmarked) [Example 51, Trisodium salt of 1-carboxy-4,{(E)-N-methyl-1,5,9-trimethyl-4,8-decadienylamino}butylphosphonic acid] | 14 |
| CC(C)=CCC/C(C)=C/CC/C(C)=C/CC/C(C)=C/CC(P(=O)(O)O)P(=O)(O)O [Example 16, (E,E,E)-4,8,12,16-Tetramethyl-3,7,11,15-heptadecatetraenyl-1,1-bis(phosphonic acid disodium salt)] | 8 |
| CC(C)=CCC/C(C)=C/CC/C(C)=C/C=C/CC(C(=O)O)P(=O)(O)O (centres unmarked) [Example 34, Trisodium salt of (E,E,E)-1-carboxy-6,10,14-trimethyl-3,5,9,13-pentadecatetraenylphosphonic acid] | 600 |
| CC(C)=CCC/C(C)=C/CC/C(C)=C/CC(C(=O)O)P(=O)(O)O (centres unmarked) [Example 32, Trisodium salt of (E,E)-carboxy-4,8,12-trimethyl-3,7,11-tridecatrienylphosphonic acid] | 1600 |

Other lines, results leading:

| IC50 [nM] | SMILES |
| --- | --- |
| 3 | CC(C)=CCC/C(C)=C/CCC(C)N(C)CCCC(P(=O)(O)O)P(=O)(O)O (centres unmarked) [Example 18, 4-{(E)-N-Methyl-1,5,9-trimethyl-4,8-decadienylamino}-butyl-1,1-bis(phosphonic acid disodium salt)] |
| 3 | CC(C)=CCC/C(C)=C/CC/C(C)=C/CC(P(=O)(O)O)P(=O)(O)O [Example 13, (E,E)-4,8,12-Trimethyl-37,11-tridecatrienyl-1,1-bis(phosphonic acid disodium salt)] |
| 3 | CCN(C/C=C(\C)CCC=C(C)C)CCCC(P(=O)(O)O)P(=O)(O)O [Example 44, 4-{(E)-N-Ethyl-3,7-dimethyl-2,6-octadienylamino}butyl-1,1-bis(phosphoric acid disodium salt)] |
| 0.5 | C/C(=C\CN(C)CCCC(P(=O)(O)O)P(=O)(O)O)CC/C=C(\C)c1ccccc1 [Example 23, 4-{(E,E)-N-Methyl-3-methyl-7-phenyl-2,6-octadienylamino}-butyl-1,1-bis(phosphonic acid disodium salt)] |
| 2 | CC(C)=CCC/C(C)=C/CC/C(C)=C/CN(C)CCCCC(P(=O)(O)O)P(=O)(O)O [Example 49, 5-{(E,E)-N-Methyl-3,7,11-trimethyl-2,6,10-dodecatrienylamino}pentyl-1,1-bis(phosphonic acid disodium salt)] |
| 1 | C/C(=C\CC(P(=O)(O)O)P(=O)(O)O)CC/C=C(\C)c1ccccc1 [Example 21, (E,E)-4-Methyl-8-phenyl-3,7-nonadienyl-1,1-bis(phosphonic acid disodium salt)] |
| 2 | CC(C)=CCC/C(C)=C/CC/C(C)=C/CNC(P(=O)(O)O)P(=O)(O)O [Example 47, {(E,E)-3,7,11-Trimethyl-2,6,10-dodecatrienylamino}-methylbis(phosphonic acid sodium salt)] |
| 1 | CC(C)=CCC/C(C)=C/CCN(C)CCCC(P(=O)(O)O)P(=O)(O)O [Example 19, 4-{(E)-N-Methyl-4,8-dimethyl-3,7-nonadienylamino}-butyl-1,1-bis(phosphonic acid disodium salt)] |
| 1 | C/C(=C\CC(P(=O)(O)O)P(=O)(O)O)CC/C=C/c1ccccc1 [Example 22, (E,E)-4-Methyl-8-phenyl-3,7-octadienyl-1,1-bis(phosphonic acid disodium salt)] |
| 1 | CC(C)=CCC/C(C)=C/CC/C(C)=C/CN(C)C(P(=O)(O)O)P(=O)(O)O [Example 48, {(E,E)-N-Methyl-3,7,11-trimethyl-2,6,10-dodecatrienylamino}methylbis(phosphonic acid disodium salt)] |
| 2 | C/C(=C\CC/C(C)=C/CC(P(=O)(O)O)P(=O)(O)O)CC/C=C/c1ccccc1 [Example 20, (E,E,E)-4,8-Dimethyl-12-phenyl-3,7,11-dodecatrienyl-1,1-bis(phosphonic acid disodium salt)] |
| 2 | CC(C)=CCC/C(C)=C/CCC(C)N(C)CCCCC(P(=O)(O)O)P(=O)(O)O (centres unmarked) [Example 46, 5-{(E}-N-Methyl-1,5,9-trimethyl-4,8-decadienylamino}-pentyl-1,1-bis(phosphonic acid disodium salt)] |
| 2 | CC(C)=CCC/C(C)=C/CC/C(C)=C/CN(C)CCCC(P(=O)(O)O)P(=O)(O)O [Example 17, 4-{(E,E)-N-Methyl-3,7,11-trimethyl-2,6,10-dodecatrienylamino}butyl-1,1-bis(phosphonic acid disodium salt)] |

Source: patent US5453524A, “Phosphorus-containing isoprenoid derivatives” (Eisai Co., Ltd., priority 1991, dated 1995)
